Molecular target: T1, human muscarinic M1 receptors (Homo sapiens, UniProt P11229)
T1 construct: expressed in transfected cells
T1 sequence (P11229 1-460): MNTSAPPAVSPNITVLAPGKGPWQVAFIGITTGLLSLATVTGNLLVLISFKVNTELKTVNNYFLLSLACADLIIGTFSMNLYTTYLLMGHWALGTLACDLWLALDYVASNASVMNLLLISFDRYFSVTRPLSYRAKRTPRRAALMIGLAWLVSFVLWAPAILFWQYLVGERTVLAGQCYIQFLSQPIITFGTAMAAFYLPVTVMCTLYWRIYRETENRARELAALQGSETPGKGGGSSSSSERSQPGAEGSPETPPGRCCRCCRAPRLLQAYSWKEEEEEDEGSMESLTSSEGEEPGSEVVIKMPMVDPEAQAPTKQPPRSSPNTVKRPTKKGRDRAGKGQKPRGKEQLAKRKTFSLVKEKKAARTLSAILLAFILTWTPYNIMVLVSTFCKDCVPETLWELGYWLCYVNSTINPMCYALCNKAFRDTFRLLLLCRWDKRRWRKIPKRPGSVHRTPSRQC
Test: FLIPR experiments on M1 receptors (calcium response, CHO-M1 cells)
Assay type: cell-based
Settings: tested for activity; assay and threshold not specified at the place
Description: FLIPR Experiments on M1 Receptors to Determine Agonist/Antagonist Potency
Compounds of the invention were characterized in a functional assay to determine their ability to activate the intracellular calcium pathway in CHO cells with stable expression of human muscarinic M1 receptors using FLIPR (Fluorometric Imaging Plate Reader) technology. Briefly, CHO-M1 cells were plated (15,000/well) and allowed to grow overnight at 37 degrees. Media were removed and 30 μL loading buffer (HBSS with 2.5 mM probenicid, 2 μM Fluo-4, 500 μM Brilliant Black, pH 7.4) was added. After incubation at 37 degrees for 90 minutes, 10 μL of the assay buffer (HBSS with 2.5 mM probenecid, pH 7.4) containing test compounds was added to each well on the FLIPR instrument. Calcium response was monitored to determine agonism. […] Calcium response was then monitored again to determine compound's antagonism to acetylcholine. […] Results were imported into ActivityBase data analysis suite (ID Business Solution Inc., Parsippany, N.J.) where the curves were analysed by non-linear curve fitting and the resulting pEC50/fpKi were calculated. The maximum asymptotes of agonist compounds were calculated as percentage of maximum FLIPR response induced by carbamoylcholine chloride added as control on the same compound plates.

Cl.O=C1Cc2ccccc2N1C1CCN(C2CCOCC2)CC1 [1-[1-(Tetrahydro-2H-pyran-4-yl)-4-piperidinyl]-1,3-dihydro-2H-indol-2-one hydrochloride]
activity: below the threshold value

Source: patent US8344000B2, “Compounds which have activity at M1 receptor and their uses in medicine” (Glaxo Group Limited, priority 2007, dated 2013)
